# Measured values taken from paper PMC8000041, “New Insights into the Metabolism of the Flavanones Eriocitrin and Hesperidin: A Comparative Human Pharmacokinetic Study” (Antioxidants, 2021).
# Where two headings read alike, the source gives them in different places.
# Experiments:
# [1] = Urinary excretion of flavanone-derived metabolites after single intake of lemon or orange extract (UPLC-ESI-QTOF-MS); type: in vivo, human; details: for Urinary excretion F1: urine fraction 0-4 h; for Urinary excretion F1 / Urinary excretion Total F / Urinary excretion F2 / Urinary excretion F3 / Urinary excretion F4: mean ± SD; for Urinary excretion Total F: sum of fractions F1-F4 (24 h); for Urinary excretion F2: urine fraction 4-8 h; for Urinary excretion F3: urine fraction 8-10 h; for Urinary excretion F4: urine fraction 10-24 h; for Occurrence Urine LE (number of volunteers in whom the metabolite was detected): after consuming lemon extract; for Occurrence Urine LE (number of volunteers in whom the metabolite was detected) / Occurrence Urine OE (number of volunteers in whom the metabolite was detected): n = 16 volunteers; for Occurrence Urine OE (number of volunteers in whom the metabolite was detected): after consuming orange extract
# Source text: Secondary endpoints involved the evaluation of post-prandial changes in several biomarkers dealing with metabolism, inflammation, and oxidative stress after a high-fat-high-sugars meal. The design was a randomized pharmacokinetic, double-blind, crossover, single-dose trial consisted of 2 test-phases. The volunteers were randomly allocated into two groups using a computerized random number list. Each group consumed one of the citrus extracts by following a test-phase that lasted for 1 day for blood sampling and urine collection, a 2-week washout period between each test phase, and crossover before consuming the other extract. The volunteers were instructed to avoid the consumption of flavanone-containing products, from a list provided by the researchers, for 1 week before the study and during the wash-out phase (citrus fruit juices, tomatoes, tomato-based sauces (like ‘ketchup’), peppers, almonds, etc.). […] The 3 capsules provided a total of 1.95 g orange extract, containing 260 mg hesperidin, and 3.1 g lemon extract, containing 260 mg eriocitrin. […] Untreated urine samples were aliquoted and frozen at −80 °C for up to 4 weeks until analyses, avoiding freeze-thaw cycles to avoid metabolites’ deconjugation. Moreover, three measurements of blood pressure and heart rate were taken before each time-point of blood withdrawal. […] A previously validated method for analyzing phenolic metabolites in biological samples, including flavanone-derived metabolites, was used. […] After centrifugation at 14,000× g for 10 min at 4 °C, the supernatant was evaporated in a speed vacuum concentrator. Finally, samples were re-suspended in 100 µL of methanol, filtered through a 0.22 µm cellulose filters before analysis by UPLC- ESI-QTOF-MS. […] A targeted screening strategy was applied to identify metabolites that could be present after consuming the citrus extracts. Twenty-eight possible compounds were browsed in all the samples. The list of compounds included the polyphenols present in the extracts, with particular focus on the flavanone rutinosides hesperidin and eriocitrin, their respective aglycones hesperetin, and eriodictyol, as well as their derived phase-II conjugates (glucuronides, sulfates, sulfoglucuronides, etc.). The exact mass of each proposed compound was extracted using an extraction window of 0.01 m/z. The metabolites hesperetin 7-O-glucuronide, hesperetin 3′-O-glucuronide, hesperetin 3-O-sulfate, naringenin 4′-O-glucuronide, and naringenin 7′-O-glucuronide were quantified with their corresponding standards. […] The parent phenolic compounds were quantified with their corresponding standards. In the case of some relevant conjugated metabolites, which standards were not available (eriodictyol and homoeriodictyol conjugates), their quantification was achieved by using relative response factors (RRFs) as previously described. Briefly, RRFs are useful to check the different responses of metabolites in the mass spectrometer vs. their UV signal. While the ionization response of free vs. conjugated forms is usually very different, their UV signal response is quite similar. To this purpose, we injected in a HPLC-DAD-ESI-Q (MS) the plasma samples (n = 5) with the highest concentrations of those conjugated metabolites. Concentrations were calculated by integrating the area from their corresponding UV peaks and compared with the UV peak area of a known concentration of their corresponding available parent compounds (eriodictyol and homoeriodictyol). The concentrations calculated were used to compare the MS response for each conjugated-aglycone pair.
# [2] = Plasma metabolites and pharmacokinetics after single intake of lemon or orange extract (UPLC-ESI-QTOF-MS, non-compartmental analysis); type: in vivo, human; details: for Occurrence Plasma LE (number of volunteers in whom the metabolite was detected): after consuming lemon extract; for Occurrence Plasma LE (number of volunteers in whom the metabolite was detected) / Occurrence Plasma OE (number of volunteers in whom the metabolite was detected): n = 16 volunteers; for Occurrence Plasma OE (number of volunteers in whom the metabolite was detected): after consuming orange extract; for Tmax / Cmax / AUC(0-t): mean ± SD; for AUC(0-t): read-out: AUC0-t
# Source text: Secondary endpoints involved the evaluation of post-prandial changes in several biomarkers dealing with metabolism, inflammation, and oxidative stress after a high-fat-high-sugars meal. The design was a randomized pharmacokinetic, double-blind, crossover, single-dose trial consisted of 2 test-phases. The volunteers were randomly allocated into two groups using a computerized random number list. Each group consumed one of the citrus extracts by following a test-phase that lasted for 1 day for blood sampling and urine collection, a 2-week washout period between each test phase, and crossover before consuming the other extract. The volunteers were instructed to avoid the consumption of flavanone-containing products, from a list provided by the researchers, for 1 week before the study and during the wash-out phase (citrus fruit juices, tomatoes, tomato-based sauces (like ‘ketchup’), peppers, almonds, etc.). […] The 3 capsules provided a total of 1.95 g orange extract, containing 260 mg hesperidin, and 3.1 g lemon extract, containing 260 mg eriocitrin. […] Plasma samples were obtained by centrifugation of peripheral venous blood at 14,000× g for 15 min at 4 °C and immediately frozen at −80 °C. Glucose, total cholesterol, HDL-cholesterol, LDL-cholesterol, triglycerides, insulin, homeostatic model assessment insulin resistance (HOMA-IR), gamma-glutamyl transferase (GGT), and alanine aminotransferase (ALT) were determined as previously reported. […] A previously validated method for analyzing phenolic metabolites in biological samples, including flavanone-derived metabolites, was used. […] After centrifugation at 14,000× g for 10 min at 4 °C, the supernatant was evaporated in a speed vacuum concentrator. Finally, samples were re-suspended in 100 µL of methanol, filtered through a 0.22 µm cellulose filters before analysis by UPLC- ESI-QTOF-MS. A targeted screening strategy was applied to identify metabolites that could be present after consuming the citrus extracts. Twenty-eight possible compounds were browsed in all the samples. The list of compounds included the polyphenols present in the extracts, with particular focus on the flavanone rutinosides hesperidin and eriocitrin, their respective aglycones hesperetin, and eriodictyol, as well as their derived phase-II conjugates (glucuronides, sulfates, sulfoglucuronides, etc.). The exact mass of each proposed compound was extracted using an extraction window of 0.01 m/z. The metabolites hesperetin 7-O-glucuronide, hesperetin 3′-O-glucuronide, hesperetin 3-O-sulfate, naringenin 4′-O-glucuronide, and naringenin 7′-O-glucuronide were quantified with their corresponding standards. […] The parent phenolic compounds were quantified with their corresponding standards. In the case of some relevant conjugated metabolites, which standards were not available (eriodictyol and homoeriodictyol conjugates), their quantification was achieved by using relative response factors (RRFs) as previously described. Briefly, RRFs are useful to check the different responses of metabolites in the mass spectrometer vs. their UV signal. While the ionization response of free vs. conjugated forms is usually very different, their UV signal response is quite similar. To this purpose, we injected in a HPLC-DAD-ESI-Q (MS) the plasma samples (n = 5) with the highest concentrations of those conjugated metabolites. Concentrations were calculated by integrating the area from their corresponding UV peaks and compared with the UV peak area of a known concentration of their corresponding available parent compounds (eriodictyol and homoeriodictyol). The concentrations calculated were used to compare the MS response for each conjugated-aglycone pair. Statistical analyses were carried out using the SPSS Software, version 23.0 (SPSS Inc., Chicago, IL, USA). Data are expressed as mean ± SD. The empirical distribution of data with the normality assumption was tested with the Shapiro-Wilk test. […]
# [3] = lemon extract (3.1 g, 260 mg eriocitrin)
# [4] = human, oral, 3.1 g, after lemon extract
# [5] = human, oral, 3.1 g, after lemon extract, read-out: Tmax
# [6] = orange extract (1.95 g, 260 mg hesperidin)
# [7] = human, oral, 1.95 g, after orange (hesperidin) extract
Structure (SMILES),"Urinary excretion F1 [1, 3]",Urinary excretion Total F ([1]; lemon extract),Urinary excretion F2 ([1]; lemon extract),Urinary excretion F3 ([1]; lemon extract),Urinary excretion F4 ([1]; lemon extract),Urinary excretion Total F ([1]; orange extract),Urinary excretion F2 ([1]; orange extract),Urinary excretion F3 ([1]; orange extract),Urinary excretion F4 ([1]; orange extract),Occurrence Urine LE (number of volunteers in whom the metabolite was detected) [1],Occurrence Urine OE (number of volunteers in whom the metabolite was detected) [1],Occurrence Plasma LE (number of volunteers in whom the metabolite was detected) [2],Occurrence Plasma OE (number of volunteers in whom the metabolite was detected) [2],Tmax ([2]; after lemon extract),"Cmax [2, 4]","AUC(0-t) [2, 4]","Tmax [2, 5]","Urinary excretion F1 [1, 6]",further results
"O=C1CC(c2ccc(O)c(O)c2)Oc2cc(OC3OC(C(=O)O)C(O)C(O)C3O)cc(O)c21 (stereo not drawn) [M1, Eriodictyol glucuronide-1]",3.2 ± 5.9 µg/mg creatinine,18.0 ± 28.4 µg/mg creatinine,9.6 ± 15.5 µg/mg creatinine,4.5 ± 6.2 µg/mg creatinine,0.7 ± 0.7 µg/mg creatinine,0.6 ± 0.4 µg/mg creatinine,0.4 ± 0.3 µg/mg creatinine,0.1 ± 0.1 µg/mg creatinine,0.05 ± 0.05 µg/mg creatinine,16,5,16,3,5.9 ± 2.4 h,104 ± 85.8 nM,0.283 ± 0.271 µM·h,6 h,,
"O=C1CC(c2ccc(O)c(OC3OC(C(=O)O)C(O)C(O)C3O)c2)Oc2cc(O)cc(O)c21 (stereo not drawn) [M2, Eriodictyol glucuronide-2]",6.4 ± 11.0 µg/mg creatinine,46.6 ± 53.6 µg/mg creatinine,18.0 ± 17.2 µg/mg creatinine,18.1 ± 19.7 µg/mg creatinine,4.2 ± 5.7 µg/mg creatinine,2.5 ± 4.9 µg/mg creatinine,0.5 ± 0.8 µg/mg creatinine,0.5 ± 0.6 µg/mg creatinine,1.4 ± 3.4 µg/mg creatinine,16,10,16,7,5.9 ± 2.4 h,871 ± 868 nM,3.22 ± 4.12 µM·h,6 h,0.1 ± 0.1 µg/mg creatinine,
"O=C1CC(c2ccc(O)cc2)Oc2cc(OC3OC(C(=O)O)C(O)C(O)C3O)cc(O)c21 (stereo not drawn) [M3, Naringenin 7-O-glucuronide]",1.0 ± 0.7 µg/mg creatinine,5.7 ± 6.9 µg/mg creatinine,2.6 ± 4.0 µg/mg creatinine,1.7 ± 1.9 µg/mg creatinine,0.3 ± 0.3 µg/mg creatinine,0.7 ± 1.5 µg/mg creatinine,0.2 ± 0.6 µg/mg creatinine,0.2 ± 0.2 µg/mg creatinine,0.2 ± 0.3 µg/mg creatinine,16,16,16,14,5.4 ± 2.5 h,56.7 ± 44.2 nM,0.203 ± 0.187 µM·h,5.5 h,0.1 ± 0.1 µg/mg creatinine,"Tmax ([2]; after orange (hesperidin) extract): 7.3 ± 2.2 h; Cmax [2, 7]: 4.7 ± 3.6 nM; AUC(0-t) [2, 7]: 0.0188 ± 0.019 µM·h; Tmax ([2]; human, oral, 1.95 g, after orange (hesperidin) extract, read-out: Tmax): 7.5 h"
"O=C1CC(c2ccc(OC3OC(C(=O)O)C(O)C(O)C3O)c(O)c2)Oc2cc(O)cc(O)c21 (stereo not drawn) [M4, Eriodictyol glucuronide-3]",9.4 ± 16.9 µg/mg creatinine,75.1 ± 128 µg/mg creatinine,33.8 ± 64.1 µg/mg creatinine,27.7 ± 40.1 µg/mg creatinine,4.3 ± 6.4 µg/mg creatinine,3.4 ± 6.2 µg/mg creatinine,0.5 ± 0.9 µg/mg creatinine,0.7 ± 0.7 µg/mg creatinine,2.1 ± 4.5 µg/mg creatinine,16,11,16,7,5.9 ± 2.6 h,639 ± 802 nM,2.29 ± 3.49 µM·h,6 h,0.1 ± 0.2 µg/mg creatinine,
